According to patent US11555015B2, “Compounds useful in the treatment of autoimmune and inflammatory disorders” (Arena Pharmaceuticals, Inc., priority 2018, dated 2023):

Each compound was assayed against S1P1 (Homo sapiens, UniProt P21453) (assay: Beta arrestin assay (in vitro S1P1 activity)). Conditions: in vitro beta-arrestin agonist assay.
S1P1, sequence (P21453 whole entry, species assumed): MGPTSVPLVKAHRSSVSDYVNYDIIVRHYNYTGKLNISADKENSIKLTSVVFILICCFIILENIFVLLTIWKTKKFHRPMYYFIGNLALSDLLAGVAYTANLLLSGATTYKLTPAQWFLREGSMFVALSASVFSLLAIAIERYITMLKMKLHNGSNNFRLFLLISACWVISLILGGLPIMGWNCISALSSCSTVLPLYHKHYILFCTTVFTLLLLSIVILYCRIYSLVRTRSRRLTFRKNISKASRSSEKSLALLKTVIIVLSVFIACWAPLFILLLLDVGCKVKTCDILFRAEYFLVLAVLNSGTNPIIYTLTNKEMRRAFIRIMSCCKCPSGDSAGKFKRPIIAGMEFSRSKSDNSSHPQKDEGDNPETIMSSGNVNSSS
Format: cell-based
Method: The in vitro S1P1 activity was determined in the beta arrestin assay.
With `O=C(O)CC1CCc2c1[nH]c1ccc(OCc3ccc(C4CCCC4O)c(C(F)(F)F)c3)cc21` (mixture of isomers) [Compound 4, 2-(7-((4-(2-hydroxycyclopentyl)-3-(trifluoromethyl)benzyl)oxy)-1,2,3,4-tetrahydrocyclopenta[b]indol-3-yl)acetic acid] the EC50 was 3.66 nM.
In the case of `O=C(O)CC1CCc2c1[nH]c1ccc(OCc3ccc(C4CCCC4O)c(C(F)(F)F)c3)cc21` (centres unmarked) [Compound 4-1, 2-(7-((4-(2-Hydroxycyclopentyl)-3-(trifluoromethyl)benzyl)oxy)-1,2,3,4-tetrahydrocyclopenta[b]indol-3-yl)acetic Acid], the EC50 is reported as 16.7 nM.
`O=C(O)CC1CCc2c1[nH]c1ccc(OCc3ccc(C4CCC(O)C4)c(C(F)(F)F)c3)cc21` (single isomer, unassigned) [Compound 2-2, 2-(7-((4-(3-Hydroxycyclopentyl)-3-(trifluoromethyl)benzyl)oxy)-1,2,3,4-tetrahydrocyclopenta[b]indol-3-yl)acetic Acid] showed an EC50 of 85.6 nM.
For `O=C(O)CC1CCc2c1[nH]c1ccc(OCc3ccc(C4CCC(O)C4)c(C(F)(F)F)c3)cc21` (single isomer, unassigned) [Compound 2-1, 2-(7-((4-(3-Hydroxycyclopentyl)-3-(trifluoromethyl)benzyl)oxy)-1,2,3,4-tetrahydrocyclopenta[b]indol-3-yl)acetic Acid], the EC50 was 52.1 nM.
For `O=C(C[C@H]1CCc2c1[nH]c1ccc(OCc3ccc(C4CCCC4)c(C(F)(F)F)c3)cc21)OC1O[C@H](C(=O)O)[C@@H](O)[C@H](O)[C@H]1O` (stereo partly drawn) [Compound 1, (2S,3S,4S,5R)-6-(2-((R)-7-((4-cyclopentyl-3-(trifluoromethyl)benzyl)oxy)-1,2,3,4-tetrahydrocyclopenta[b]indol-3-yl)acetoxy)-3,4,5-trihydroxytetrahydro-2H-pyran-2-carboxylic acid], the EC50 was 3.9 nM.
